Values quoted from earlier work as cited in patent publication US20200368246A1, “COMBINATION THERAPY TARGETING CANCER ASSOCIATED WITH THE HEDGEHOG PATHWAY” (priority 2017, published 2020).
Where two headings read alike, the source gives them in different places.

How the values were obtained:
[1] = for patients who experience treatment-emergent adverse events: monotherapy at recommended dose; for patients who experienced adverse side effects: muscle spasms, alopecia, taste loss, weight loss, fatigue
basal cell carcinoma = conditions: patient
[2] = tested on: advanced and metastatic basal cell carcinoma; conditions: monotherapy
[3] = nineteen patients; grade 2 fatigue and grade 4 congestive heart failure
[4] = metastatic basal cell carcinoma

Molecule | patients who experience treatment-emergent adverse events [1] | patients with severe grade 3 or 4 adverse reactions ([1]; monotherapy trial) | patients who experienced adverse side effects ([1]; monotherapy trial) | tumor shrinkage (basal cell carcinoma; clinical trial, within the first several months) | tumor outcome on second course (basal cell carcinoma; placed back on the drug after radiation) | mean time for secondary resistance [2] | treated patients with secondary resistance [2] | response rate ([2]; advanced basal cell carcinoma) | response rate [2, 4] | patients who had to discontinue treatment due to toxic effects ([1]; monotherapy trial) | adverse events associated with treatment [3] | effectiveness (basal cell carcinoma; 3 cycles)
CS(=O)(=O)c1ccc(C(=O)Nc2ccc(Cl)c(-c3ccccn3)c2)c(Cl)c1 [Erivedge®, vismodegib] | Ninety-five to one hundred percent | 25% | 33% | 70% | the tumor developed resistance to the drug | about 52 weeks | 21% | 43% | 30% |  |  | 
Cc1c(C(=O)Nc2ccc(N3C[C@@H](C)O[C@@H](C)C3)nc2)cccc1-c1ccc(OC(F)(F)F)cc1 [Odomzo®, sonidegib] | Ninety-five to one hundred percent |  | 32% |  |  | about 52 weeks | 21% | 47% | 17.4% | 22% |  | 
CCC(C)n1ncn(-c2ccc(N3CCN(c4ccc(OCC5COC(Cn6cncn6)(c6ccc(Cl)cc6Cl)O5)cc4)CC3)cc2)c1=O (stereo not drawn) [itraconazole] |  |  |  |  |  |  |  |  |  |  | two adverse events | 
pembrolizumab [Keytruda] |  |  |  |  |  |  |  |  |  |  |  | failed to show effectiveness
